Measured values from US8258114B2, “Modulation of glucose-6-phosphatase translocase expression” (Isis Pharmaceuticals, Inc., priority 2004, dated 2012).
Oligonucleotides are written 5' to 3', each unit as a sugar letter and its base; * is a phosphorothioate linkage, no mark a phosphodiester; rarer units and linkages stand in square brackets, end groups in braces. Plain capitals give the bases only. e = 2'-O-(2-methoxyethyl) (MOE); [5mC] = 5-methylcytosine; d = 2'-deoxy (DNA)

Legend:
[1] = system: human glucose-6-phosphatase translocase mRNA; experiment: Antisense inhibition of human glucose-6-phosphatase translocase mRNA in HepG2 cells (Table 11); format: cell-based; set-up: concentration or dose not given beside the values; details: LIPOFECTIN, mRNA by real-time PCR
How it was run: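 HepG2 cells at 65-75% confluency transfected with 2′-MOE gapmer oligonucleotides using LIPOFECTIN (2.5 or 3 μg/mL per 100 nM oligo) for 4-7 h and harvested 16-24 h later. Target mRNA measured by RT real-time PCR and normalized to GAPDH or RiboGreen total RNA.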

[2] = Body weight and tissue weights of normal Sprague-Dawley rats (Table 13); details: for Spleen weight / Fat weight / Kidney weight / Liver weight: end of study; for Increases in body weights (in words): 12.5 to 50 mg/kg, throughout the study
Experimental: For three weeks, male Sprague-Dawley rats were injected twice-weekly with doses of 12.5 mg/kg, 25 mg/kg, or 50 mg/kg of ISIS 145760, ISIS 359543, or ISIS 366228. Each treatment group was comprised of 4 animals. Animals which received twice weekly injections of saline served as controls.
Body weight was monitored throughout the study period. […] Tissue weights were also measured at the end of the study.

[3] = system: glucose-6-phosphatase translocase mRNA; experiment: Target reduction in liver: rat dose-response study (Table 12); format: in vivo; details: Sprague-Dawley rats; for % Inhibition, target reduction in liver: three weeks; for target mRNA levels in rat liver (in words): 12.5 to 50 mg/kg
Experimental: (§1) Each treatment group was comprised of 4 animals.
At the end of the treatment period, animals were sacrificed and target reduction in liver was measured by real-time PCR as described in other examples herein. Results are shown in Table 12 as the average percent reduction in glucose-6-phosphatase translocase levels as compared to saline treated control.

[4] = Plasma glucose, cholesterol and triglycerides in normal Sprague-Dawley rats (Table 14); format: in vivo, rat; set-up: plasma GLUCOSE WK 0 / plasma GLUCOSE WK 3: unit not given beside the values; details: for plasma triglycerides (in words): 12.5 to 50 mg/kg, three weeks
Experimental: as §1
To further assess the physiological effects resulting from inhibition of target mRNA, the rats were evaluated at the beginning (Wk 0) and at the end (Wk 3) of the treatment period for plasma glucose, plasma cholesterol, and plasma triglyceride levels. Triglycerides and cholesterol were measured by routine clinical analyzer instruments (e.g. Olympus Clinical Analyzer, Melville, N.Y.). Glucose levels were measured using a glucose analyzer, for example a YSI glucose analyzer (YSI Scientific, Yellow Springs, Ohio). Results are presented in Table 14 as the average level of plasma glucose, plasma cholesterol (CHOL), or plasma triglycerides (TRIG) measured per treatment group.

[5] = system: mouse glucose-6-phosphatase translocase mRNA; experiment: Antisense inhibition of mouse glucose-6-phosphatase translocase mRNA in primary mouse hepatocytes, 150 nM, LIPOFECTIN (Table 22); format: cell-based; details: real-time PCR
How it was run: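 Primary CD-1 mouse hepatocytes at 65-75% confluency transfected ~4-7 h at 37° C with 150 nM 5-10-5 2′-MOE gapmer phosphorothioate oligonucleotides plus LIPOFECTIN (2.5 or 3 μg/mL per 100 nM). Harvested 16-24 h post-treatment; mRNA by real-time RT-PCR, normalized to GAPDH or RiboGreen total RNA, expressed as percent inhibition.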

[6] = 12.5 mg/kg twice weekly, saline 0.7
[7] = 12.5 mg/kg twice weekly, saline 1.8
[8] = 12.5 mg/kg twice weekly, saline 3
[9] = 12.5 mg/kg twice weekly, saline 15
[10] = 12.5 mg/kg twice weekly, week 3, saline 290
[11] = 12.5 mg/kg twice weekly, saline 58
[12] = 12.5 mg/kg twice weekly, saline 69
[13] = 12.5 mg/kg twice weekly, saline 74
[14] = 12.5 mg/kg twice weekly, saline 135
[15] = 12.5 mg/kg twice weekly, saline 139
[16] = 12.5 mg/kg twice weekly, saline 140

CGGCCCATCTTGGTGCGGAT (e[5mC]*eG*eG*e[5mC]*e[5mC]*d[5mC]*dA*dT*d[5mC]*dT*dT*dG*dG*dT*dG*e[5mC]*eG*eG*eA*eT; antisense) [ISIS 145706]
% Inhib [1]: 96%
Spleen weight [2, 6]: 0.7 grams
Fat weight [2, 7]: 1.5 grams
Kidney weight [2, 8]: 3 grams
Liver weight [2, 9]: 15 grams
Body weight [2, 10]: 289 grams
Fat weight ([2]; 25 mg/kg twice weekly): 1.3 grams
Kidney weight ([2]; 25 mg/kg twice weekly): 3 grams
Liver weight ([2]; 25 mg/kg twice weekly): 15 grams
Spleen weight ([2]; 25 mg/kg twice weekly): 1.0 grams
Body weight ([2]; 25 mg/kg twice weekly, week 3): 300 grams
Fat weight ([2]; 50 mg/kg twice weekly): 1.2 grams
Kidney weight ([2]; 50 mg/kg twice weekly): 3 grams
Liver weight ([2]; 50 mg/kg twice weekly): 16 grams
Spleen weight ([2]; 50 mg/kg twice weekly): 0.9 grams
Body weight ([2]; 50 mg/kg twice weekly, week 3): 290 grams
Increases in body weights (in words) [2]: comparable to the increases in body weight observed for saline-treated control animals
% Inhibition, target reduction in liver ([3]; 12.5 mg/kg twice weekly): 12%
% Inhibition, target reduction in liver ([3]; 25 mg/kg twice weekly): 56%
% Inhibition, target reduction in liver ([3]; 50 mg/kg twice weekly): 77%
target mRNA levels in rat liver (in words) [3]: effective in reducing target mRNA levels in rat liver in a dose-dependent manner
plasma cholesterol (CHOL) WK 3 [4, 11]: 51
plasma triglycerides (TRIG) WK 0 [4, 12]: 54
plasma cholesterol (CHOL) WK 0 [4, 13]: 69
plasma GLUCOSE WK 0 [4, 14]: 149
plasma GLUCOSE WK 3 [4, 15]: 151
plasma triglycerides (TRIG) WK 3 [4, 16]: 61
plasma GLUCOSE WK 0 ([4]; 25 mg/kg twice weekly): 149
plasma GLUCOSE WK 3 ([4]; 25 mg/kg twice weekly): 148
plasma cholesterol (CHOL) WK 0 ([4]; 25 mg/kg twice weekly): 80
plasma cholesterol (CHOL) WK 3 ([4]; 25 mg/kg twice weekly): 59
plasma triglycerides (TRIG) WK 0 ([4]; 25 mg/kg twice weekly): 45
plasma triglycerides (TRIG) WK 3 ([4]; 25 mg/kg twice weekly): 58
plasma GLUCOSE WK 0 ([4]; 50 mg/kg twice weekly): 148
plasma GLUCOSE WK 3 ([4]; 50 mg/kg twice weekly): 151
plasma cholesterol (CHOL) WK 0 ([4]; 50 mg/kg twice weekly): 79
plasma cholesterol (CHOL) WK 3 ([4]; 50 mg/kg twice weekly): 57
plasma triglycerides (TRIG) WK 0 ([4]; 50 mg/kg twice weekly): 66
plasma triglycerides (TRIG) WK 3 ([4]; 50 mg/kg twice weekly): 52
plasma triglycerides (in words) [4]: prevented the increases in triglycerides observed in saline-treated animals
% Inhib of mouse glucose-6-phosphatase translocase mRNA levels [5]: 54%

GTGCTTGGCAATGGTGCTGA (eG*eT*eG*e[5mC]*eT*dT*dG*dG*d[5mC]*dA*dA*dT*dG*dG*dT*eG*e[5mC]*eT*eG*eA; antisense) [ISIS 359543]
% Inhib [1]: 74%
Spleen weight [2, 6]: 0.9 grams
Fat weight [2, 7]: 1.4 grams
Kidney weight [2, 8]: 3 grams
Liver weight [2, 9]: 15 grams
Body weight [2, 10]: 285 grams
Fat weight ([2]; 25 mg/kg twice weekly): 1.3 grams
Kidney weight ([2]; 25 mg/kg twice weekly): 3 grams
Liver weight ([2]; 25 mg/kg twice weekly): 16 grams
Spleen weight ([2]; 25 mg/kg twice weekly): 1.1 grams
Body weight ([2]; 25 mg/kg twice weekly, week 3): 295 grams
Fat weight ([2]; 50 mg/kg twice weekly): 1.0 grams
Kidney weight ([2]; 50 mg/kg twice weekly): 3 grams
Liver weight ([2]; 50 mg/kg twice weekly): 13 grams
Spleen weight ([2]; 50 mg/kg twice weekly): 1.4 grams
Body weight ([2]; 50 mg/kg twice weekly, week 3): 277 grams
Increases in body weights (in words) [2]: comparable to the increases in body weight observed for saline-treated control animals
% Inhibition, target reduction in liver ([3]; 12.5 mg/kg twice weekly): 50%
% Inhibition, target reduction in liver ([3]; 25 mg/kg twice weekly): 62%
% Inhibition, target reduction in liver ([3]; 50 mg/kg twice weekly): 77%
target mRNA levels in rat liver (in words) [3]: effective in reducing target mRNA levels in rat liver in a dose-dependent manner
plasma cholesterol (CHOL) WK 3 [4, 11]: 57
plasma triglycerides (TRIG) WK 0 [4, 12]: 69
plasma cholesterol (CHOL) WK 0 [4, 13]: 80
plasma GLUCOSE WK 0 [4, 14]: 138
plasma GLUCOSE WK 3 [4, 15]: 165
plasma triglycerides (TRIG) WK 3 [4, 16]: 61
plasma GLUCOSE WK 0 ([4]; 25 mg/kg twice weekly): 138
plasma GLUCOSE WK 3 ([4]; 25 mg/kg twice weekly): 154
plasma cholesterol (CHOL) WK 0 ([4]; 25 mg/kg twice weekly): 82
plasma cholesterol (CHOL) WK 3 ([4]; 25 mg/kg twice weekly): 57
plasma triglycerides (TRIG) WK 0 ([4]; 25 mg/kg twice weekly): 62
plasma triglycerides (TRIG) WK 3 ([4]; 25 mg/kg twice weekly): 37
plasma GLUCOSE WK 0 ([4]; 50 mg/kg twice weekly): 135
plasma GLUCOSE WK 3 ([4]; 50 mg/kg twice weekly): 136
plasma cholesterol (CHOL) WK 0 ([4]; 50 mg/kg twice weekly): 87
plasma cholesterol (CHOL) WK 3 ([4]; 50 mg/kg twice weekly): 54
plasma triglycerides (TRIG) WK 0 ([4]; 50 mg/kg twice weekly): 69
plasma triglycerides (TRIG) WK 3 ([4]; 50 mg/kg twice weekly): 19
plasma triglycerides (in words) [4]: dose-dependent reductions in plasma triglycerides
